Tests used:
chick CaSR = assay: Plasma calcium in chicks after single oral gavage of CaSR modulator; format: in vivo; conditions: various doses, 2 week old and newly hatched chicks, various intervals of time
Source text: Male chicks (either newly hatched or 2 weeks of age) were gavaged with a single application of various doses of the specific CaSR modulator (MC 0100), a specific pharmacological modulator of CaSRs, to increase the apparent sensitivity of the CaSR to agonists such as calcium. An increase in the apparent sensitivity of the chick CaSR to extracellular calcium is expected to result in the “resetting” of the normal range of calcium within the chick to a lower level of plasma calcium since the functioning CaSR are all shifted leftward (more sensitive) on the dose response curve of CaSR for calcium.

chicken CaSR = assay: CaSR dependent ERK 1/2 phosphorylation (Western blot) in HEK cells transfected with chicken CaSR; format: cell-based; conditions: 1 micromolar MC 0100
Experimental: HEK cells transfected with the chicken CaSR were cultured under standard conditions (DMEM with 10% FCS). Confluent flasks were serum-starved overnight in DMEM supplemented with 0.2% BSA and pre-incubated for 60 min at 37° C. in the following medium: 125 mM NaCl, 4 mM KCl, 20 mM Hepes, 0.1% glucose, 0.8 mM NaH2PO4, 1 mM MgCl2, 0.1% BSA, 0.5 mM CaCl2, pH 7.45. The cells were then incubated in the same medium without BSA in the presence of different mineral chelates at different concentrations (see below) for 15 min at 37° C. At the end of the incubation treatment media was removed and cells were washed with PBS and than lysed in 250 microliter of M-PER lysis buffer (Pierce Chemical Company, Rockford, Ill.) containing 10 ul/ml of protease inhibitors (Pierce Chemical Company, Rockford, Ill.). Cell lysates were centrifuged for 10 min at 4° C. at 14,000×g. The protein content in the supernatants was analyzed using the BCA Protein Assay system from Pierce Chemical Company, Rockford, Ill. Equal amounts of protein (20 ug) were combined with 4× loading buffer and […] DTT, heated to 95° C., separated by SDS gel electrophoresis and electrotransferred to PVD membranes. The membranes were incubated in 1% BSA in TBS-T (TRIS-buffered saline containing Tween 20 at 0.1%) overnight. After 4 washes in TBS-T the membranes were incubated with primary antibody (anti phosphoERK at 1:400 dilution; this antibody recognizes the phosphorylated form of ERK 1/2) for 1.5 hours at room temperatures, washed 4 times and incubated with secondary antibody (anti mouse at 1:50,000 dilution). After 4 washes in TBS-T the membranes were developed using the ECL Western Blotting system.
The experiments described in FIGS. 34 A and B used the following metal chelate treatments: ZnProteinate, CuProteinate and MnProteinate (Balchem Corporation, New Hampton, N.Y.) at the following concentrations: 0.025% and 2.5%, or at a concentration of 0.025% with 1 micromolar MC 0100 (a calcimimetic); or various concentrations of bacitracin Zn.

avian CaSR = assay: FURA2 ratio imaging fluorimetry of HEK cells stably expressing avian (chicken) CaSR; format: cell-based
Source text: All methods and equipment utilized to perform experiments on HEK cells have been reported previously (Gama, L. and Breitwieser, G. E. 1998. A carboxyl-terminal domain controls the cooperativity for extracellular Ca2+ activation of the human calcium sensing receptor. A study with receptor-green fluorescent protein fusions. J. Biol. Chem. 273, 29712-29718; Bai, M., Quinn, S., Trivedi, S., Kifor, 0., Pearce, S. H., Pollak, M. R., Krapcho, K., Hebert, S. C. and Brown, E. M. 1996. Expression and characterization of inactivating and activating mutations in the human Ca2+o-sensing receptor. J. Biol. Chem. 271, 19537-19544). Untransfected HEK cells or, alternatively, cells transfected and expressing CaSR protein were cultured in Dulbecco's Modified Eagle Medium containing 10% fetal bovine serum and 1% penicillin-streptomycin in 75 cm^2 flasks until they reached confluence. Media was removed from the flasks and cells were loaded by exposure to Loading Buffer (125 mM NaCl, 4 mM KCl, 1.0 mMCaCl2, 1.0 mM MgCl2, 1 mM NaH2PO4, 20 mM HEPES, 1 gm/liter bovine serum albumin, and 1 gm/l glucose, pH ˜7.4, osmolality ˜285) containing 4.1 micromolar FURA2-AM (Molecular Probes Inc. Eugene, Oreg.) for 2 hr. Cells were then scraped from the surface of the flask using a standard cell scraper (Costar 3010, Corning Inc.). Cells were then pelleted from the suspension by low speed centrifugation to remove loading buffer and rinsed twice to remove extracellular FURA2 dye by two sequential suspensions and pelleting steps using low speed centrifugation. Immediately prior to the start of the experiment, cells were resuspended in various experimental buffers for analyses as described below. The Standard Experimental Buffer used for many studies was composed of: 125 mM NaCl, 4 mM KCl, 0.5 mMCaCl2, 0.5 mM MgCl2, 20 mM HEPES, 1 g/l glucose, pH ˜7.4, osmolality ˜285. All other buffers were variations on this basic composition where specific components within the Standard Experimental Buffer were varied while the remaining components were held constant.
Cell suspensions consisting of a total volume of 3 ml were analyzed in a PTI fluorimeter (PTI Model 814 Photomultiplier Detection System equipped with SC-500 Shutter Controller and PTI Driver and Analysis Software) within approximately 20 min after exposure to experimental buffers. Data was acquired using standard ratio image analysis as described previously using a data acquisition rate of 1.3 sec. for 500 or 1000 second intervals.
In selected experiments, the detergent Triton X-100 was added in order to lyse the cells and quantify differences in FURA2 ratio fluorescence. Triton X-100 was added to the cells to obtain a maximal fluorescence signal from the FURA2 for purposes of quantification.
The ability of the CaSR modulator MC0100 to potentiate the response of avian and mammalian CaSRs to the chelated mineral amino acid complex, ZnPro, was tested. For avian CaSR experiments, three individual aliquots from a single pool of HEK cells that stably express the recombinant avian CaSR protein were used for ratio imaging fluorimetry assays of CaSR activation generally as described in Example 6 herein. […] In all aliquots, the detergent Triton X-100 was added as the last addition to lyse the cells (FIG. 29A).
From a single pool of HEK cells stably expressing the avian CaSR, aliquots of cells were removed and analyzed using ratio imaging fluorimetry generally as described in Example 6 herein. After a standard addition of Ca++ to a final concentration of 2.5 mM, either 0.0025%, 0.025% or 0.25% Zinc Proteinate was added followed by a second addition of Ca++ to a final concentration of 7.5 mM. Subsequently, an aliquot of the detergent Triton X-100 was added to lyse the cells. […] The magnitude of the subsequent CaSR response to Ca++ was reduced via increasing Zn Proteinate stimulation.
Fluorimetry analysis was performed on HEK cells expressing the recombinant chicken CaSR protein generally as described in Example 6 herein.

[1] = Nonstressed pen trial, serum parameters of broiler chickens given feed additives; format: in vivo, broiler chickens (Cobb); conditions: feed additive, MC0100 10 mg/kg or Mintrex Zn 250 mg/kg, Day 14
Source text: Male Cobb strain broiler chickens were reared in standard minipens and fed standard feed.

COc1cccc([C@@H](C)NCCCc2ccccc2)c1 [MC0100]
plasma calcium (chick CaSR): dose dependent decrease
effect on ERK1/2 phosphorylation response to 0.025% Cu Proteinate (chicken CaSR): net reduction
effect on ERK1/2 phosphorylation response to 0.025% Mn Proteinate (chicken CaSR): strongly enhanced
effect of prior modulator on CaSR response to 0.25% Mintrex Zn (avian CaSR; 1 micromolar MC0100, buffer 1.5 mM Ca2+): potentiated the response
effect of modulator on CaSR response to ZnPro (avian CaSR; MC0100 added before ZnPro): potentiates the response
CaSR response to the modulator itself (avian CaSR; MC0100 at final 1 micromolar, buffer 1.5 mM Ca2+): yielded a response
CaSR response to stepwise additions (avian CaSR; after addition of 2.5 mM Ca++ (FIG. 36)): increased responses
mean serum calcium concentration compared to Control [1]: significant reductions

Reference: patent US9351998B2, “Methods of nourishing animals” (MariCal, Inc., priority 2008, dated 2016)
